Data as given in paper PMC117120 (BMC Biochemistry, 2002).
Residue numbers refer to the chain shown, from its start. Where “and” joins values, the source holds several entries; their conditions need not be identical. Identical values can stand only once.

How the values were obtained:
[1] = biological target: T1, Y140A mutant mouse 5-HT3ASR (Mus musculus, UniProt P23979, Y141A); assay: [^3H]granisetron saturation binding, Y140A receptor; settings: ± SE
T1 sequence (P23979 24-483 isoform P23979-2 Y141A): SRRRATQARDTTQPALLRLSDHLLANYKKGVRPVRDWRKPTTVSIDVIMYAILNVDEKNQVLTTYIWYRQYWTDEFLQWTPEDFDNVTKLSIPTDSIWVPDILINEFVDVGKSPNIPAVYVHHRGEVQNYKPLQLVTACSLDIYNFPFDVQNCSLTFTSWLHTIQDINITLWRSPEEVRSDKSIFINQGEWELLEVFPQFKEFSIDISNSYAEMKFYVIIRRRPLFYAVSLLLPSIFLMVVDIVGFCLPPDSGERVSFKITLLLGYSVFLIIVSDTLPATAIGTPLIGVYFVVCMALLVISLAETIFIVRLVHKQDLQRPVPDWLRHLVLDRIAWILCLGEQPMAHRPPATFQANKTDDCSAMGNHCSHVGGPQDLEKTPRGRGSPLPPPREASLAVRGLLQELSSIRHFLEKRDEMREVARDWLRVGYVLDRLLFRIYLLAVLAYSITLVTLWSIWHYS

[2] = biological target: T2, Y142A mutant mouse 5-HT3ASR (Mus musculus, UniProt P23979, Y143A); assay: [^3H]granisetron saturation binding, Y142A receptor; settings: ± SE
T2 sequence (P23979 24-483 isoform P23979-2 Y143A): T1 sequence (P23979 24-483 isoform P23979-2 Y141A) with A118Y, Y120A

[3] = biological target: T3, G147A mutant mouse 5-HT3ASR (Mus musculus, UniProt P23979, G148A); assay: [^3H]granisetron saturation binding, G147A receptor
T3 sequence (P23979 24-483 isoform P23979-2 G148A): T1 sequence (P23979 24-483 isoform P23979-2 Y141A) with A118Y, G125A

[4] = biological target: T4, E148A mutant mouse 5-HT3ASR (Mus musculus, UniProt P23979, E149A); assay: [^3H]granisetron saturation binding, E148A receptor
T4 sequence (P23979 24-483 isoform P23979-2 E149A): T1 sequence (P23979 24-483 isoform P23979-2 Y141A) with A118Y, E126A

[5] = biological target: T5, V149A mutant mouse 5-HT3ASR (Mus musculus, UniProt P23979, V150A); assay: [^3H]granisetron saturation binding, V149A receptor
T5 sequence (P23979 24-483 isoform P23979-2 V150A): T1 sequence (P23979 24-483 isoform P23979-2 Y141A) with A118Y, V127A

[6] = biological target: T6, Y152A mutant mouse 5-HT3ASR (Mus musculus, UniProt P23979, Y153A); assay: [^3H]granisetron saturation binding, Y152A receptor; settings: ± SE
T6 sequence (P23979 24-483 isoform P23979-2 Y153A): T1 sequence (P23979 24-483 isoform P23979-2 Y141A) with A118Y, Y130A

- Bmax [1]: 0.44 ± .08 pmol/mg protein
- Bmax [2]: 0.97 ± .14 pmol/mg protein
- Hill coefficient (n) [2]: 1.6 ± 0.27
- binding of [^3H]granisetron [3]: No detectable binding
- decrease in binding affinity (increased Kd), mutant vs wildtype ([4]; E148A vs wildtype): 5.3 fold
- Hill coefficient (n) ([4]; E148A, ± SE): 0.93 ± 0.19
- binding of [^3H]granisetron [5]: No detectable binding
- Bmax [6]: 0.59 ± .10 pmol/mg protein
Structure (SMILES): CN1C2CCCC1CC(NC(=O)c1nn(C)c3ccccc13)C2 (stereo not drawn) [[^3H]granisetron]
- Bmax ([4]; E148A, ± SE): 5.5 pmol/mg protein and 5.5 ± 1.2 pmol/mg protein
